Experimental data: patent publication US20240139191A1, “SMALL MOLECULES AS LARP1 LIGANDS” (priority 2020, published 2024)

Biological target: LARP1 DM15 region (Homo sapiens, UniProt Q6PKG0)
Test: binding of LARP1 DM15 region to capped RNA motifs
Conditions: relative to endogenous (human) m7GpppC motif; FIGS. 1B & C

Cn1c[n+]([C@@H]2O[C@H](COP(=O)(O)OP(=O)(O)OP(=O)(O)OC[C@H]3O[C@@H](n4cnc5c(N)ncnc54)[C@H](O)[C@@H]3O)[C@@H](O)[C@H]2O)c2nc(N)[nH]c(=O)c21 [m^7GpppA]
interaction with DM15 region compared with m7GpppC-initiated mRNA targets: even tighter interaction
